Data taken from patent US20190134005A1 (BioMarin Pharmaceutical Inc., priority 2016, published 2019).

Target: T1, human CGT (Homo sapiens, UniProt Q16880)
T1 sequence (Q16880 21-541): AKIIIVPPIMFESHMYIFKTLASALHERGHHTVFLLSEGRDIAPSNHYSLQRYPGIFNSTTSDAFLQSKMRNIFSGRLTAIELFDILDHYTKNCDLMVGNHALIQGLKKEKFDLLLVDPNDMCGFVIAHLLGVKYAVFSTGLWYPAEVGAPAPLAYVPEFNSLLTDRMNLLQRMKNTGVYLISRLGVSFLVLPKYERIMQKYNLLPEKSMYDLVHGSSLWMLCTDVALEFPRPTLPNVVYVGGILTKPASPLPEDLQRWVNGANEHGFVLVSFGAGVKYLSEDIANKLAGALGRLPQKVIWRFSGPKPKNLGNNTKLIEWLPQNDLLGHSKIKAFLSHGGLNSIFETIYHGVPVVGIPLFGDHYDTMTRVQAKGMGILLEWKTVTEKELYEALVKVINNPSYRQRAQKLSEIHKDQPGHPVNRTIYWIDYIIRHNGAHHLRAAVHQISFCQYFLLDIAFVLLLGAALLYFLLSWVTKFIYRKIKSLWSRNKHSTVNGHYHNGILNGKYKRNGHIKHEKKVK
Test: Assay 1: CGT Enzymatic Assay (RapidFire/MS/MS, 0.01% Tween 80)
Format: biochemical
Settings: Table 1, Compounds of Formula (I) and Formula (II); CGT enzymatic assay, C6-NBD-dihydro-galactosylceramide readout; read-out: IC50

SMILES | IC50 [nM]
CC(C)c1c(-c2ccccc2)n(-c2ccc(Br)cc2)c(=O)n1-c1ccc(Br)cc1 [Compound 267, 1,3-bis(4-bromophenyl)-4-isopropyl-5-phenyl-1,3-dihydro-2H-imidazol-2-one] | < 1000
N#Cc1ccc(N2C(=O)N(c3ccc(Cl)cc3)C(O)(c3cccc(C#N)c3)C23CCC3)cc1 (stereo not shown) [Compound 268, 3-(7-(4-chlorophenyl)-5-(4-cyanophenyl)-8-hydroxy-6-oxo-5,7-diazaspiro[3.4]octan-8-yl)benzonitrile] | < 1000
N#Cc1ccc(N2C(=O)N(c3ccc(Cl)cc3)C(O)(c3cccc(OC(F)(F)F)c3)C23CCC3)cc1 (stereo not shown) [Compound 269, 4-(7-(4-chlorophenyl)-8-hydroxy-6-oxo-8-(3-(trifluoromethoxy)phenyl)-5,7-diazaspiro[3.4]octan-5-yl)benzonitrile] | < 1000
Cc1ccc(N2C(=O)N(c3ccc(C#N)cc3)C(C)(C)C2(O)c2cccc(C#N)c2)cc1 (stereo not shown) [Compound 270, 3-(1-(4-cyanophenyl)-4-hydroxy-5,5-dimethyl-2-oxo-3-(p-tolyl)imidazolidin-4-yl)benzonitrile] | < 1000

Same assay, conditions: Table 1, Compounds of Formula (I) and Formula (II); CGT enzymatic assay; read-out: IC50

SMILES | IC50 [nM]
COc1ccc(N2C(=O)N(c3ccc(OC)cc3)C(O)(c3cccc(OC(F)(F)F)c3)C2(C)C)cc1 (stereo not shown) [Compound 241, 4-hydroxy-1,3-bis(4-methoxyphenyl)-5,5-dimethyl-4-(3-(trifluoromethoxy)phenyl)imidazolidin-2-one] | < 1000
O=C1N(c2ccc(Cl)cc2)C2(CCC2)C(O)(c2cccc(OC(F)(F)F)c2)N1c1ccc(Cl)cc1 (stereo not shown) [Compound 242, 5,7-bis(4-chlorophenyl)-8-hydroxy-8-(3-(trifluoromethoxy)phenyl)-5,7-diazaspiro[3.4]octan-6-one] | < 1000
CCCc1c(-c2cccc(C(F)(F)F)c2)n(-c2ccc(Cl)cc2)c(=O)n1-c1ccc(Cl)cc1 [Compound 243, 1,3-bis(4-chlorophenyl)-4-propyl-5-(3-(trifluoromethyl)phenyl)-1,3-dihydro-2H-imidazol-2-one] | 1000 to 10000
CCCc1c(-c2cccc(CC)c2)n(-c2ccc(Cl)cc2)c(=O)n1-c1ccc(Cl)cc1 [Compound 244, 1,3-bis(4-chlorophenyl)-4-(3-ethylphenyl)-5-propyl-1,3-dihydro-2H-imidazol-2-one] | 1000 to 10000
CCCc1c(-c2cccc(OC(F)(F)F)c2)n(-c2ccc(Cl)cc2)c(=O)n1-c1ccc(Cl)cc1 [Compound 245, 1,3-bis(4-chlorophenyl)-4-propyl-5-(3-(trifluoromethoxy)phenyl)-1,3-dihydro-2H-imidazol-2-one] | < 1000
Cc1c(-c2cccc(Br)c2)n(-c2ccc(Cl)cc2)c(=O)n1-c1ccc(Cl)cc1 [Compound 246, 4-(3-bromophenyl)-1,3-bis(4-chlorophenyl)-5-methyl-1,3-dihydro-2H-imidazol-2-one] | < 1000
CCc1c(-c2cccc(OC(F)(F)F)c2)n(-c2ccc(Cl)cc2)c(=O)n1-c1ccc(Cl)cc1 [Compound 247, 1,3-bis(4-chlorophenyl)-4-ethyl-5-(3-(trifluoromethoxy)phenyl)-1,3-dihydro-2H-imidazol-2-one] | < 1000
CCCc1c(-c2cccc(OC(F)(F)F)c2)n(-c2ccc(Br)cc2)c(=O)n1-c1ccc(Br)cc1 [Compound 248, 1,3-bis(4-bromophenyl)-4-propyl-5-(3-(trifluoromethoxy)phenyl)-1,3-dihydro-2H-imidazol-2-one] | < 1000
O=c1n(-c2ccc(Br)cc2)c(-c2ccccc2)c(C2CC2)n1-c1ccc(Br)cc1 [Compound 249, 1,3-bis(4-bromophenyl)-4-cyclopropyl-5-phenyl-1,3-dihydro-2H-imidazol-2-one] | < 1000
CCCc1c(-c2cccc(Cl)c2)n(-c2ccc(Br)cc2)c(=O)n1-c1ccc(Br)cc1 [Compound 250, 1,3-bis(4-bromophenyl)-4-(3-chlorophenyl)-5-propyl-1,3-dihydro-2H-imidazol-2-one] | < 1000
CCc1c(-c2cccc(C#N)c2)n(-c2ccc(F)cc2)c(=O)n1-c1ccc(F)cc1 [Compound 252, 3-(5-ethyl-1,3-bis(4-fluorophenyl)-2-oxo-2,3-dihydro-1H-imidazol-4-yl)benzonitrile] | 1000 to 10000
CC(=O)c1cccc(-c2c(C)n(-c3ccc(Cl)cc3)c(=O)n2-c2ccc(Cl)cc2)c1 [Compound 253, 4-(3-acetylphenyl)-1,3-bis(4-chlorophenyl)-5-methyl-1,3-dihydro-2H-imidazol-2-one] | 1000 to 10000
O=c1n(-c2ccc(Cl)cc2)c(-c2cccc(Cl)c2)c(C2CCCO2)n1-c1ccc(Cl)cc1 (stereo not shown) [Compound 254, 4-(3-chlorophenyl)-1,3-bis(4-chlorophenyl)-5-(tetrahydrofuran-2-yl)-1,3-dihydro-2H-imidazol-2-one] | 1000 to 10000
O=c1n(-c2ccc(Br)cc2)cc(-c2ccc[nH]2)n1-c1ccc(Br)cc1 [Compound 256, 1,3-bis(4-bromophenyl)-4-(1H-pyrrol-2-yl)-1,3-dihydro-2H-imidazol-2-one] | > 50000
Cc1c(-c2ccccc2)n(-c2ccc(Br)cc2)c(=O)n1-c1ccc(Br)cc1 [Compound 257, 1,3-bis(4-bromophenyl)-4-methyl-5-phenyl-1,3-dihydro-2H-imidazol-2-one] | < 1000
CCc1c(-c2cccc(C#N)c2)n(-c2ccc(Cl)cc2)c(=O)n1-c1ccc(Cl)cc1 [Compound 258, 3-(1,3-bis(4-chlorophenyl)-5-ethyl-2-oxo-2,3-dihydro-1H-imidazol-4-yl)benzonitrile] | < 1000
Cc1cccc(-c2cn(-c3ccc(Cl)cc3)c(=O)n2-c2ccc(Cl)cc2)c1 [Compound 259, 1,3-bis(4-chlorophenyl)-4-(m-tolyl)-1,3-dihydro-2H-imidazol-2-one] | > 50000
Cc1cccc(-c2c(C)n(-c3ccc(Cl)cc3)c(=O)n2-c2ccc(Cl)cc2)c1 [Compound 260, 1,3-bis(4-chlorophenyl)-4-methyl-5-(m-tolyl)-1,3-dihydro-2H-imidazol-2-one] | 1000 to 10000
CCCc1c(-c2ccccc2)n(-c2ccc(Br)cc2)c(=O)n1-c1ccc(Br)cc1 [Compound 261, 1,3-bis(4-bromophenyl)-4-phenyl-5-propyl-1,3-dihydro-2H-imidazol-2-one] | 1000 to 10000
Cc1c(-c2cccc(OC(F)(F)F)c2)n(-c2ccc(Br)cc2)c(=O)n1-c1ccc(Br)cc1 [Compound 262, 1,3-bis(4-bromophenyl)-4-methyl-5-(3-(trifluoromethoxy)phenyl)-1,3-dihydro-2H-imidazol-2-one] | 1000 to 10000
Cc1cccc(-c2c(C)n(-c3ccc(Br)cc3)c(=O)n2-c2ccc(Br)cc2)c1 [Compound 263, 1,3-bis(4-bromophenyl)-4-methyl-5-(m-tolyl)-1,3-dihydro-2H-imidazol-2-one] | 1000 to 10000
CCc1c(-c2ccccc2)n(-c2ccc(Br)cc2)c(=O)n1-c1ccc(Br)cc1 [Compound 264, 1,3-bis(4-bromophenyl)-4-ethyl-5-phenyl-1,3-dihydro-2H-imidazol-2-one] | < 1000
N#Cc1cc(Cl)cc(-c2cn(-c3ccc(Cl)cc3)c(=O)n2-c2ccc(Cl)cc2)c1 [Compound 265, 3-(1,3-bis(4-chlorophenyl)-2-oxo-2,3-dihydro-1H-imidazol-4-yl)-5-chlorobenzonitrile] | > 50000
Cc1csc(-c2c(C)n(-c3ccc(Br)cc3)c(=O)n2-c2ccc(Br)cc2)c1 [Compound 266, 1,3-bis(4-bromophenyl)-4-methyl-5-(4-methylthiophen-2-yl)-1,3-dihydro-2H-imidazol-2-one] | 1000 to 10000
